Measurements: patent publication US7026344B2, “Treating sickle cell disease” (priority 2000, dated 2006)

System: human γ (Huγ) mRNA in K562 cells
Test: γ globin mRNA induction in K562 cells by RNase protection assay
Assay type: cell-based
Conditions: K562
Procedure: Cell Culture. K562 cells were grown in suspension cultures in RPMI-1640 containing 10% fetal bovine serum, penicillin (100 U/ml) and streptomycin (0.1 mg/ml in a humidified incubator at 37° C. in a 5%CO2/95% air atmosphere. The following experimental conditions were analyzed in triplicate with 2×10^6 cells per well: an untreated control, ZL dissolved in 0.1% dimethylsulfoximide (DMSO) at final concentrations of […], HU at […] and two positive controls hemin (50 mM) and sodium butyrate (NB) 2 mM. The K562 cells were induced for 72 hours then RNA isolated for further analysis. Cell viability was completed by 2% trypan blue exclusion at timnes 0 and 72 hours.
RNA Isolation. RNA was isolated using RNA Stat-60 (TEL-TEST “B”, Inc., Friendswood, Tex.) according to the manufacturer's instructions. In brief, cell pellets will be suspended in RNA Stat-60 (1 ml) and chloroform (200 μl), and the RNA extracted and precipitated with isopropanol.
RNase Protection Analysis. MRNA levels will be quantitated by RNase protection assay (RPA) with probes designed to yield protected fragments for human γ (Huγ)and the internal control glyceraldehydes-3-phosphate dehydrogenase (GAPD). Huγ mRNA levels were normalized to that of GAPD and compared to the untreated K562 cells. (Zar: Statistical Analysis, Englewood)
Several pharmacological hemoglobin F inducers such as HU, 5-azacytidine, erythropoietin, didox, and butyrate alter γ gene expression in culture. The induction of γ gene activity in culture is a good indicator of potential clinical usefulness. Therefore the capability of ZL to induce γ gene activity at the mRNA level was tested. K562 cells were cultured in ZL from 0 to 100 μM or HU (50μ to 100 μM) for 48 hours. Total cellular RNA was analyzed by RPA for γ mRNA levels. An increase in γ mRNA for ZL at 20 μM with a maximal response at 75 μM (FIG. 4A) was observed. The level of γ gene mRNA synthesis was quantitated relative to the internal control, CAPD. […] K562 cell viability was decreased 10% when measured using trypan blue exclusion at 75 μM and 100 μM concentrations for both ZL and HU. The level of γ gene induction was 3.9 fold and 10-fold for the positive controls NB and hemin, respectively.

| Compound | level of γ gene induction (positive control NB 2 mM) | level of γ gene induction (positive control hemin (50 µM)) |
| --- | --- | --- |
| CCCC(=O)[O-].[Na+] [NB, sodium butyrate] | 3.9 fold |  |
| hemin |  | 10 fold |
